Data from patent US20250340648A1, “COMBINATION THERAPY FOR TREATMENT OF CANCER COMPRISING ANTI-PD-L1 AND ANTI-CD73 ANTIBODIES” (MedImmune Limited, priority 2022, published 2025).
Entries after “also recorded” stand apart in the source; their conditions may differ.

Key:
[1] = system: adenosine pathway metabolites; test: Mass Spectrometry Imaging of CT26 tumors; type: in vivo, mouse
Protocol: Tumors were snap frozen in liquid nitrogen immediately after resection and the frozen tissues were embedded in a HPMC/PVP hydrogel as previously described (Dannhorn A. et al., Anal Chem 2020; 92:11080-8). Sectioning was performed on a CM3050 S cryostat (Leica Biosystems, Nussloch, Germany) at a section thickness of 10 um and the tissue sections were immediately thaw mounted and dried under a stream of nitrogen and sealed in vacuum pouches to preserve the metabolic integrity of the sections. Tissue sections for DESI-MSI and IMC were thaw-mounted onto Superfrost microscope slides (VWR, Cat. No. 630-2863), whilst sections prepared for MALDI-MSI were thaw mounted onto conductive indium tin oxide (ITO) coated slides (Bruker Daltonik, Cat. No. 8237001). Polyvinylpyrrolidone (PVP) and (Hydroxypropyl) methylcellulose (HPMC) (purchased from Merck (Cat. No.PVP360; H8384). Methanol (Cat. No. 15624680), iso-pentane (Cat. No. 15692830) and isopropyl alcohol (Cat. No. 10674732) were obtained from Fisher Scientific.
DESI-MSI analysis was performed on a Q-Exactive mass spectrometer (Thermo Scientific, Bremen, Germany) equipped with an automated 2D-DESI ion source (Prosolia Inc., Indianapolis, IN, USA) operated in negative ion mode, covering the applicable mass range up to m/z of 1000, with a nominal mass resolution of 70,000. […]

[2] = system: CT26 (colorectal) tumor cells; test: CT26 syngeneic mouse tumor model; type: in vivo, BALB/c mice; details: CT26 tumors; result in words
Protocol: (§1) In vivo studies were performed using 8-10 week old BALB/cAnNCrl mice (Charles River UK) or C57BL/6. Mice were housed in an AstraZeneca vivarium with access to food and water ad libidum and were cared for daily by trained personnel. Mice were acclimatized to the vivarium conditions for a week and handled according to the Home Office Animals Scientific Procedures Act, 1986, UK. All animal work was carried out under a Home Office approved project licence (PPL P49077891) and […] (RTx studies) as well as according to the institutional guidelines. BALB/c mice were subcutaneously implanted with 0.5e6 CT26 (colorectal) tumor cells. […] Tumors were measured with callipers three times a week, starting from day-5. […]
(§2) All in vivo data were collated in the Excel spreadsheets and transferred to GraphPad Prism 9.00 (GraphPad Software Inc.) for graphical representation and statistical analysis. After outlier identification and Shapiro-Wilk test for normality distribution, statistical significance was determined by One-way ANOVA followed by Dunnett's multiple comparison for comparisons of more than two groups if data were normally distributed. […] Survival studies were analysed with a log rank (Mantel-Cox) test, comparing only two survival curves at a time. […]

[3] = system: MCA205 (fibrosarcoma) tumor cells; test: MCA205 syngeneic mouse tumor model; type: in vivo, C57BL/6 mice; details: MCA205 tumors; result in words
Protocol: as §1, §2

[4] = system: immune cell populations in the treated CT26 tumors; test: MCP-Counter estimate of immune cell abundance from RNAseq; design: species or system mouse; details: MCP counter on RNAseq
Protocol: (§3) Gene set enrichment analysis was performed using R package ‘fGSEA’ (Korotkevich G et al., bioRxiv 2021; 060012) using hallmark gene sets from mouse MSigDB (Subramanian A. et al., Proc Natl Acad Sci USA 2005; 102:15545-50). Enrichment p-values were calculated as described in Korotkevich G et al., bioRxiv 2021; 060012 and p-values were adjusted using Benjamini-Hochberg method. Gene ontology Biological Process enrichments were identified using R package topGO (Bioconductor-topGO) with adj-pval<0.05. KEGG pathway enrichment analysis was conducted using R package clusterProfiler (Wu T. et al., The Innovation 2021; 2:100141). MCPCounter tool (Becht E. et al., Genome Biol 2016; 17:1-20) was used to estimate immune cell abundances for each sample and condition using immune gene signatures within MCPCounter.
Next we checked if the gene perturbation at this scale also led to changes in the enumeration of the cell populations. For this we estimated the abundance of immune cell populations in the treated CT26 tumors, using the MCP-Counter tool (Becht E, et al., Genome Biol 2016; 17:1-20).

CT26 transcriptome = test: RNAseq of treated CT26 tumors; type: in vivo, Mus musculus
Protocol: Tumor tissue was flash-frozen in liquid nitrogen and stored at −80° C. at the time of collection in the animal unit and was sent to Novogene on dry ice. Tissue processing and RNA extraction was carried out by Novogene Co. by using the QIAGEN RNeasy Plus Universal kit (Qiagen, Cat. No. 73404), according to the manufacturer's protocol. Briefly, tissue samples were homogenized in QIAzol Lysis Reagent. The homogenate was then separated into aqueous and organic phases by centrifugation after addition of gDNA eliminator solution and chloroform. The upper, aqueous phase containing RNA was collected, and RNA purified using RNeasy spin columns. RNA quality check (QC) was performed by 1% Agarose gel electrophoresis, amount and purity were measured by Nanodrop, and RNA […] Number (RIN) was obtained by Bioanalyzer Agilent2100.
NEBNextR Ultra RNA library prep kit (Cat. No. E7530L) was used for library preparation for sequencing. Samples were sequenced using Illumina PE150 (50M reads/sample) bulk RNA-seq and downstream bioinformatic analysis was performed.
Reads were mapped to Mus musculus genome (mm10) genome using Star (Dobin A et al., Bioinformatics 2013; 29:15-21). Uniquely mapped reads were counted using htseq-count (Putri GH et al., Bioinformatics 2022; 38:2943-5). DESeq2 (Love M I et al., Genome Biol 2014; 15) was used to normalize counts with size factors and identify differentially expressed genes across conditions with a threshold of abs (log2FC)>1 and adjusted p value<0.05.
as §3

[5] = CT26 tumors vs control, abs(log2FC)>1, adjusted p<0.05
[6] = CT26 tumors, component added to the other parts of aCD73+aPD-L1+5FU+OHP
[7] = component within aCD73+aPD-L1+5FU+OHP, not modulated in other iterations

Substance: 5-fluorouracil (5FU)+oxaliplatin (OHP) [5FU+OHP]
- ATP abundance (MSI) ([1]; compared to control treated tumors): modest increase
- AMP abundance (MSI) ([1]; compared to other treatment groups): modest increase
- tumor growth inhibition / efficacy [2]: supressed tumor growth rates; also recorded: retarded tumor growth in a proportion of drug recipients
- tumor growth inhibition / efficacy [3]: supressed tumor growth rates; also recorded: retarded tumor growth in a proportion of drug recipients
- abundance of immune cell populations in tumor [4]: increased lymphocyte representation
- Down-regulated genes (CT26 transcriptome; [5]): 158 genes
- Up-regulated genes (CT26 transcriptome; [5]): 277 genes
- differentially expressed (DE) genes (CT26 transcriptome; [5]): 435 DE DE genes
- Up-regulated genes (CT26 transcriptome; CT26 tumors vs control, abs(log2FC)>1, adjusted p<0.05, listed as FF): 277 Up- genes
- genes downregulated when the named component is included in the combination (CT26 transcriptome; [6]): IL-10, IL-1b, CXCL2, S100A8
- genes upregulated or notably influenced when the named component is included in the combination (CT26 transcriptome; [6]): Interferon-gamma, TRIM6, CCL17, Granzyme B, GDF15, perforin and Lag3
- individual genes downregulated (CT26 transcriptome; CT26 tumors, gene names): CXCL2 expression was reduced; also recorded: CXCL2, IL-1b, CD103 and XCR1
- individual genes upregulated (CT26 transcriptome; CT26 tumors, gene names): CCL3, 4, 8, 17, CXCL10, GDF15, CD8a, IFNγ, Perforin, Granzyme, Lag-3 and PD-1; also recorded: IFN-Y, CCL3, CCL8, Lag-3 and granzyme B; also recorded: elevated ARORA2 gene expression
- DE genes due to addition of the named component (CT26 transcriptome; aCD73+aPD-L1+5FU+OHP vs the combination without the component, Abs(log2FC)>=1, Adj-pval<0.05): 546 DE genes
- genes uniquely downregulated by the named component (CT26 transcriptome; [7]): 122 genes
- genes uniquely upregulated by the named component (CT26 transcriptome; [7]): 360 genes
